Reference: ChEMBL document CHEMBL1135430, “Synthesis of 3,4-dihydro-2H-1,2,4-benzo-thiadiazine 1,1-dioxide derivatives as potential allosteric modulators of AMPA/kainate receptors” (2002)

Species on record: Rattus norvegicus
Test: Variation of kainate-activated (KA) currents in primary cultures of cerebellar granule neurons at 1 mM using patch-clamp technique
Type: functional

| SMILES | Variation |
| --- | --- |
| CN(C)c1ccc(C2Nc3ccccc3S(=O)(=O)N2)cc1 (stereo unspecified) | -1% |
| O=S1(=O)NC(c2ccc(O)cc2)Nc2ccc(Cl)cc21 (stereo unspecified) | -51% |
| O=S1(=O)NC(CCl)Nc2ccccc21 (stereo unspecified) | -22% |
| O=S1(=O)NC(C(F)(F)F)Nc2ccccc21 (stereo unspecified) | 70% |
| O=S1(=O)NC(c2ccccc2)Nc2ccccc21 (stereo unspecified) | -34% |
| O=S1(=O)NC(CCl)Nc2ccc(Cl)cc21 (stereo unspecified) | -26% |
| O=S1(=O)NC(c2ccc(O)cc2)Nc2ccccc21 (stereo unspecified) | -60% |
| CC1Nc2ccc(Cl)cc2S(=O)(=O)N1 (stereo unspecified) | 115% |
| CN(C)c1ccc(C2Nc3ccc(Cl)cc3S(=O)(=O)N2)cc1 (stereo unspecified) | -1% |
| O=S1(=O)NC(C(F)(F)F)Nc2ccc(Cl)cc21 (stereo unspecified) | 72% |
| NS(=O)(=O)c1cc2c(cc1Cl)NC(C1CC3C=CC1C3)NS2(=O)=O (stereo unspecified) [CYCLOTHIAZIDE] | 111% |
